Reference: patent publication US9957269B2, “S-imino-S-oxo iminothiazine compounds as bace inhibitors, compositions, and their use” (Merck Sharp & Dohme Corp., priority 2014, dated 2018)

Columns and labels:
[1] = molecular target: soluble human BACE1 catalytic domain (Homo sapiens, UniProt P56817); test: BACE1 HTRF FRET Assay; format: biochemical; conditions: Ki calculated from IC50 using the Cheng-Prusoff equation; QSY7-APPswe-Eu substrate 200 nM, pH 5.0
Source text: Na^+-Acetate pH 5.0; 1% Brij-35; Glycerol; Dimethyl Sulfoxide (DMSO); Recombinant human soluble BACE1 catalytic domain (>95% pure); APP Swedish mutant peptide substrate (QSY7-APP^swe-Eu): QSY7-EISEVNLDAEFC-Europium-amide.
A homogeneous time-resolved FRET assay can be used to determine IC50 values for inhibitors of the soluble human BACE1 catalytic domain. This assay monitors the increase of 620 nm fluorescence that resulted from BACE1 cleavage of an APPswedish APP^swe mutant peptide FRET substrate (QSY7-EISEVNLDAEFC-Europium-amide). This substrate contains an N-terminal QSY7 moiety that serves as a quencher of the C-terminal Europium fluorophore (620 nm Em). In the absence of enzyme activity, 620 nm fluorescence is low in the assay and increased linearly over 3 hours in the presence of uninhibited BACE1 enzyme. Inhibition of BACE1 cleavage of the QSY7-APP^swe-Eu substrate by inhibitors is manifested as a suppression of 620 nm fluorescence.
Varying concentrations of inhibitors at 3× the final desired concentration in a volume of 10 ul are preincubated with purified human BACE1 catalytic domain (3 nM in 10 μl) for 30 minutes at 30° C. in reaction buffer containing 20 mM Na-Acetate pH 5.0, 10% glycerol, 0.1% Brij-35 and 7.5% DSMO. Reactions are initiated by addition of 10 μl of 600 nM QSY7-APP^swe-Eu substrate (200 nM final) to give a final reaction volume of 30 μl in a 384 well Nunc HTRF plate. The reactions are incubated at 30° C. for 1.5 hours. The 620 nm fluorescence is then read on a Rubystar HTRF plate reader (BMG Labtechnologies) using a 50 millisecond delay followed by a 400 millisecond acquisition time window. Inhibitor IC50 values are derived from non-linear regression analysis of concentration response curves. Ki values are then calculated from IC50 values using the Cheng-Prusoff equation using a previously determined […] of 8 μM for the QSY7-APP^swe-Eu substrate at BACE.

[2] = molecular target: T1, purified human autoBACE-2 (Homo sapiens, UniProt Q9Y5Z0); test: BACE-2 Assay (BACE-HTRF assay); format: biochemical; conditions: Ki calculated from IC50 using the Cheng-Prusoff equation; QSY7-EISEVNLDAEFC-Eu-amide substrate 200 nM, pH 5.0; read-out: BACE2 Ki
T1 sequence (Q9Y5Z0 63-473 limits assumed): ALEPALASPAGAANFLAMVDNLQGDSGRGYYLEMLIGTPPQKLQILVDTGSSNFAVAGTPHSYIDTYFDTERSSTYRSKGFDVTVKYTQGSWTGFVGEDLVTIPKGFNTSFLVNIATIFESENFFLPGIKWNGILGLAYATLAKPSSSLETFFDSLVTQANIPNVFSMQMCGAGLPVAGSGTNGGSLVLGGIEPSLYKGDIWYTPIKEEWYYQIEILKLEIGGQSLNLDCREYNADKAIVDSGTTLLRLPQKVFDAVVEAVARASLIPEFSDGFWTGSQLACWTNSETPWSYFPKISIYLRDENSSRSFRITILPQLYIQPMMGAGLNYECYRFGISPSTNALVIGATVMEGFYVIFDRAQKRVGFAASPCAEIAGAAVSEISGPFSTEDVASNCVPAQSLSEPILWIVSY
Protocol: Inhibitor IC50s at purified human autoBACE-2 are determined in a time-resolved endpoint proteolysis assay that measures hydrolysis of the QSY7-EISEVNLDAEFC-Eu-amide FRET peptide substrate (BACE-HTRF assay). BACE-mediated hydrolysis of this peptide results in an increase in relative fluorescence (RFU) at 620 nm after excitation with 320 nm light. Inhibitor compounds, prepared at 3× the desired final concentration in 1× BACE assay buffer (20 mM sodium acetate pH 5.0, 10% glycerol, 0.1% Brij-35) supplemented with 7.5% DMSO are pre-incubated with an equal volume of autoBACE-2 enzyme diluted in 1× BACE assay buffer (final enzyme concentration 1 nM) in black 384-well NUNC plates for 30 minutes at 30° C. […] DMSO is present at 5% final concentration in the assay. Following laser excitation of sample wells at 320 nm, the fluorescence signal at 620 nm is collected for 400 ms following a 50 μs delay on a RUBYstar HTRF plate reader (BMG Labtechnologies). Raw RFU data is normalized to maximum (1.0 nM BACE/DMSO) and minimum (no enzyme/DMSO) RFU values. IC50s are determined by nonlinear regression analysis (sigmoidal dose response, variable slope) of percent inhibition data with minimum and maximum values set to 0 and 100 percent respectively. Similar IC50s are obtained when using raw RFU data. The Ki values are calculated from the IC50 using the Cheng-Prusoff equation.

Chain of soluble human BACE1 catalytic domain (P56817 75-416 limits assumed): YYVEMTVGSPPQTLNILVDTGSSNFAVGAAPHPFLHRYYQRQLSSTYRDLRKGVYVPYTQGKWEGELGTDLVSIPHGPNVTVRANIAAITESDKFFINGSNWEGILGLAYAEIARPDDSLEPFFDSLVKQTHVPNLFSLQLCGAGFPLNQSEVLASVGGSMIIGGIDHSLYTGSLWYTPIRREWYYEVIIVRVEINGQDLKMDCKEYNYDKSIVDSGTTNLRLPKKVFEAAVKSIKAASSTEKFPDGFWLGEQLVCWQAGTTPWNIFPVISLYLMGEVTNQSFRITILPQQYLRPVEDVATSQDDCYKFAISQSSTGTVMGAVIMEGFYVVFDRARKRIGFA

Compound | Ki [1] [nM] | Ki [2] [nM]
CN=[S@@]1(=O)C[C@@](C)(c2cc(Nc3nccc4nc(OC)cnc34)ccc2F)NC(=N)C1(C)C [Example 1, (1R,5R)-5-(2-fluoro-5-((2-methoxypyrido[3,4-b]pyrazin-5-yl)amino)phenyl)-3-imino-2,2,5-trimethyl-1-(methylimino)-1λ^6-thiomorpholine 1-oxide] | 14 | 16
CN=[S@@]1(=O)C[C@@](C)(c2cc(Nc3ccnc4cc(OC)cnc34)ccc2F)NC(=N)C1(C)C [Example 2, (1R,5R)-5-(2-fluoro-5-((7-methoxy-1,5-naphthyridin-4-yl)amino)phenyl)-3-imino-2,2,5-trimethyl-1-(methylimino)-1λ^6-thiomorpholine 1-oxide] | 98 | 75
CN=[S@]1(=O)C[C@@](C)(c2cc(Nc3nccc4cc(OC)cnc34)ccc2F)NC(=N)C1(C)C [Example 4, (1S,5R)-5-(2-fluoro-5-((3-methoxy-1,7-naphthyridin-8-yl)amino)phenyl)-3-imino-2,2,5-trimethyl-1-(methylimino)-1λ^6-thiomorpholine 1-oxide] | 28 | 25
CN=[S@]1(=O)C[C@@](C)(c2cc(Nc3ccnc4nc(OC)cnc34)ccc2F)NC(=N)C1(C)C [Example 5, (1S,5R)-5-(2-fluoro-5-((3-methoxypyrido[2,3-b]pyrazin-8-yl)amino)phenyl)-3-imino-2,2,5-trimethyl-1-(methylimino)-1λ^6-thiomorpholine 1-oxide] | 1160 | –
CN=[S@]1(=O)C[C@@](C)(c2cc(Nc3nccc4cc(Br)cnc34)ccc2F)NC(=N)C1(C)C [Example 6, (1S,5R)-5-(5-((3-bromo-1,7-naphthyridin-8-yl)amino)-2-fluorophenyl)-3-imino-2,2,5-trimethyl-1-(methylimino)-1λ^6-thiomorpholine 1-oxide] | 4 | 2
CN=[S@]1(=O)C[C@@](C)(c2cc(Nc3ncnc4cc(Br)cnc34)ccc2F)NC(=N)C1(C)C [Example 7, (1S,5R)-5-(5-((7-bromopyrido[3,2-d]pyrimidin-4-yl)amino)-2-fluorophenyl)-3-imino-2,2,5-trimethyl-1-(methylimino)-1λ^6-thiomorpholine 1-oxide] | 10 | –
CN=[S@@]1(=O)C[C@@](C)(c2cc(Nc3ncnc4cc(Br)cnc34)ccc2F)NC(=N)C1(C)C [Example 8, (1R,5R)-5-(5-((7-bromopyrido[3,2-d]pyrimidin-4-yl)amino)-2-fluorophenyl)-3-imino-2,2,5-trimethyl-1-(methylimino)-1λ^6-thiomorpholine 1-oxide] | 3 | 1
CN=[S@]1(=O)C[C@@](C)(c2cc(Nc3ncccc3OC)ccc2F)NC(=N)C1(C)C [Example 9, (1S,5R)-5-(2-fluoro-5-((3-methoxypyridin-2-yl)amino)phenyl)-3-imino-2,2,5-trimethyl-1-(methylimino)-1λ^6-thiomorpholine 1-oxide] | 24 | 6
